Source: ChEMBL document CHEMBL6134867, “Design and Synthesis of FR-β Targeting Chimeric Molecules for Reprogramming Tumor-Associated Macrophages Using 6-Substituted Pyrrolo[2,3-d]pyrimidines as Targeting Ligands” (J Med Chem, 2025)
Active and inactive are the calls of the source. The calls are words filed in the database; no cut-off is given here.

Key:
[1] = system: BMDM; assay: Induction of macrophage repolarization in FR-beta expressing IL-4 differentiated M2 phenotype mouse BMDM cells assessed as reprogramming to M1 phenotype by measuring upregulation of MyD88 expression at 10 nM incubated for 24 hrs by western blot analysis; type: functional, cell-based
[2] = Toxicity against BALB/c mouse assessed as increase in TNF-alpha level in plasma at 20 ug, iv measured after 2 hrs by ELISA; type: organism-based; conditions: in vivo, dose 20 µg
[3] = system: BMDM; assay: Induction of macrophage repolarization in FR-beta expressing IL-4 differentiated M2 phenotype mouse BMDM cells assessed as reprogramming to M1 phenotype by measuring upregulation of IL-6 level at 10 nM incubated for 24 hrs by ELISA; type: functional, cell-based
[4] = system: BMDM; assay: Induction of macrophage repolarization in FR-beta expressing IL-4 differentiated M2 phenotype mouse BMDM cells assessed as reprogramming to M1 phenotype by measuring downregulation of IL-10 mRNA expression at 10 nM incubated for 24 hrs by RT-qPCR analysis; type: functional, cell-based
[5] = system: BMDM; assay: Induction of macrophage repolarization in FR-beta expressing IL-4 differentiated M2 phenotype mouse BMDM cells assessed as reprogramming to M1 phenotype by measuring downregulation of CD206 mRNA expression at 10 nM incubated for 24 hrs by RT-qPCR analysis; type: functional, cell-based
[6] = system: BMDM; assay: Induction of macrophage repolarization in FR-beta expressing IL-4 differentiated M2 phenotype mouse BMDM cells assessed as reprogramming to M1 phenotype by measuring upregulation of TLR7 expression at 10 nM incubated for 24 hrs by western blot analysis; type: functional, cell-based
[7] = Toxicity against BALB/c mouse xenografted with mouse 4T1 cells assessed as heightened inflammatory response in lung at 0.333 mg/kg, iv qd for 14 days by Hematoxylin-Eosin staining based analysis; type: organism-based; conditions: in vivo, 336 h, time 14 day
[8] = Toxicity against BALB/c mouse assessed as increase in IL-6 level in plasma at 20 ug, iv measured after 2 hrs by ELISA; type: organism-based; conditions: in vivo, dose 20 µg
[9] = system: BMDM; assay: Induction of macrophage repolarization in FR-beta expressing IL-4 differentiated M2 phenotype mouse BMDM cells assessed as reprogramming to M1 phenotype by measuring downregulation of Arg1 expression at 10 nM incubated for 24 hrs by western blot analysis; type: functional, cell-based
[10] = system: 4T1; assay: Antitumor activity against mouse 4T1 cells xenografted in BALB/c mouse assessed as lifespan of animal's survival at 0.333 mg/kg, iv qd for 14 days; type: functional; conditions: time 14 day
[11] = system: BMDM; assay: Induction of macrophage repolarization in FR-beta expressing IL-4 differentiated M2 phenotype mouse BMDM cells assessed as reprogramming to M1 phenotype by measuring upregulation of iNOS mRNA expression at 10 nM incubated for 24 hrs by RT-qPCR analysis; type: functional, cell-based
[12] = system: Mus musculus; assay: In vivo repolarization of macrophages from M2 phenotype to M1 phenotype in BALB/c mouse xenografted with mouse 4T1 cells assessed as increase in M1 (F4/80+CD11b+CD86+) to M2 (F4/80+CD11b+CD206+) macrophage ratio in tumor at 0.333 mg/kg, iv qd for 14 days by flow cytometry; type: functional, organism-based; conditions: time 14.0 day
[13] = system: BMDM; assay: Induction of macrophage repolarization in FR-beta expressing IL-4 differentiated M2 phenotype mouse BMDM cells assessed as reprogramming to M1 phenotype by measuring TNF-alpha level at 10 nM incubated for 24 hrs by ELISA; type: functional, cell-based
[14] = system: BMDM; assay: Induction of macrophage repolarization in FR-beta expressing IL-4 differentiated M2 phenotype mouse BMDM cells assessed as reprogramming to M1 phenotype by measuring downregulation of CD206 expression at 10 nM incubated for 24 hrs by western blot analysis; type: functional, cell-based
[15] = system: BMDM; assay: Induction of macrophage repolarization in FR-beta expressing IL-4 differentiated M2 phenotype mouse BMDM cells assessed as reprogramming to M1 phenotype by measuring upregulation of iNOS expression at 10 nM incubated for 24 hrs by western blot analysis; type: functional, cell-based
[16] = system: HUVEC; assay: Cytotoxicity against human HUVEC cells assessed as reduction in cell viability at >10 uM incubated for 24 hrs by CCK-8 assay; type: toxicity, cell-based
[17] = system: BMDM; assay: Induction of macrophage repolarization in FR-beta expressing IL-4 differentiated M2 phenotype mouse BMDM cells assessed as reprogramming to M1 phenotype by measuring upregulation of TLR7 mRNA expression at 10 nM incubated for 24 hrs by RT-qPCR analysis; type: functional, cell-based
[18] = system: BMDM; assay: Induction of macrophage repolarization in FR-beta expressing IL-4 differentiated M2 phenotype mouse BMDM cells assessed as reprogramming to M1 phenotype by measuring downregulation of IL-10 level at 10 nM incubated for 24 hrs by ELISA; type: functional, cell-based
[19] = system: 4T1; assay: Antitumor activity against mouse 4T1 cells xenografted in BALB/c mouse assessed as inhibition of tumor growth at 0.333 mg/kg, iv qd for 14 days and measured every day by digital caliper analysis; type: functional, organism-based; conditions: time 14.0 day
[20] = system: BMDM; assay: Induction of macrophage repolarization in FR-beta expressing IL-4 differentiated M2 phenotype mouse BMDM cells assessed as reprogramming to M1 phenotype by measuring upregulation of IL-6 mRNA expression at 10 nM incubated for 24 hrs by RT-qPCR analysis; type: functional, cell-based
[21] = system: 4T1; assay: Cytotoxicity against mouse 4T1 cells assessed as reduction in cell viability at >10 uM incubated for 24 hrs by CCK-8 assay; type: toxicity, cell-based; conditions: 4t1, 24 h
[22] = system: BMDM; assay: Induction of macrophage repolarization in FR-beta expressing IL-4 differentiated M2 phenotype mouse BMDM cells assessed as reprogramming to M1 phenotype by measuring TNF-alpha mRNA expression at 10 nM incubated for 24 hrs by RT-qPCR analysis; type: functional, cell-based
[23] = Toxicity against BALB/c mouse xenografted with mouse 4T1 cells assessed as decrease in body weight at 0.333 mg/kg, iv qd for 14 days and measured every day; type: organism-based; conditions: in vivo, 336 h, time 14 day
[24] = system: BMDM; assay: Induction of macrophage repolarization in FR-beta expressing IL-4 differentiated M2 phenotype mouse BMDM cells assessed as reprogramming to M1 phenotype by measuring downregulation of Arg1 mRNA expression at 10 nM incubated for 24 hrs by RT-qPCR analysis; type: functional, cell-based
[25] = Cytotoxicity against mouse BMDM cells assessed as reduction in cell viability at >10 uM incubated for 24 hrs by CCK-8 assay; type: toxicity, cell-based

## CCCCc1nc2c(N)nc3ccccc3c2n1Cc1ccc(CN)cc1
[1]
  Activity: Active
[2]
  Activity: Toxic
[3]
  Activity: Active
[4]
  Activity: Active
[5]
  Activity: Active
[6]
  Activity: Active
[7]
  Activity: Toxic
[8]
  Activity: Toxic
[9]
  Activity: Active
[10]
  Survival: 27 days
[11]
  Activity: Active
[12]
  Activity: inactive
[13]
  Activity: inactive
[14]
  Activity: Active
[15]
  Activity: Active
[16]
  Activity: Toxic
[17]
  Activity: Active
[18]
  Activity: Active
[19]
  Activity: Active; Diminished Antitumor Efficacy Compared To Fgt-1 To 4 Observed
[20]
  Activity: Active
[21]
  Activity: Toxic
[22]
  Activity: inactive
[23]
  Activity: Toxic
[24]
  Activity: Active
[25]
  Activity: Toxic
